Results taken from US20040171622A1, “Cardioprotective delta opioid receptor agonists and methods of using same” (priority 2003, published 2004).
Where two headings read alike, the source gives them in different places.

How the values were obtained:
[1] = target: T1, μ opioid receptor (Rattus norvegicus, UniProt P33535); experiment: Radioligand binding ([3H]DAMGO), rat brain membranes
T1 construct: tissue Pel-Freeze Biological Inc. (Rogers, Ark.); host or cells: rat whole brain membranes

[2] = target: T2, δ opioid receptor (Rattus norvegicus, UniProt P33533); experiment: Radioligand binding ([3H]Deltorphin II), rat brain membranes
T2 construct: tissue Pel-Freeze Biological Inc. (Rogers, Ark.); host or cells: rat whole brain membranes
T2 sequence (P33533 whole entry): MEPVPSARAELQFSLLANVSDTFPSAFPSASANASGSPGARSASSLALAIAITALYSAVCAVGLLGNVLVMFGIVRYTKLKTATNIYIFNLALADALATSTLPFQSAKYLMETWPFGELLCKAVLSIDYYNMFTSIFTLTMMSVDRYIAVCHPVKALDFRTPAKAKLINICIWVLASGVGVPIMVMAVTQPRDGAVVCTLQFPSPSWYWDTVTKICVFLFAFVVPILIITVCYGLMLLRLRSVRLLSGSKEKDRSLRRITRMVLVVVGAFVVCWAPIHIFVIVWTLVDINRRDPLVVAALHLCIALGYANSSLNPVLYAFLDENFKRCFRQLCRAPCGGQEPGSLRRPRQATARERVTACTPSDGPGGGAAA

[3] = target: T3, κ opioid receptor (Cavia porcellus, UniProt P41144); experiment: Radioligand binding ([3H]U69593), guinea pig cerebellum membranes
T3 construct: tissue Pel-Freeze Biological Inc. (Rogers, Ark.); host or cells: guinea pig cerebellum membranes
T3 sequence (P41144 whole entry): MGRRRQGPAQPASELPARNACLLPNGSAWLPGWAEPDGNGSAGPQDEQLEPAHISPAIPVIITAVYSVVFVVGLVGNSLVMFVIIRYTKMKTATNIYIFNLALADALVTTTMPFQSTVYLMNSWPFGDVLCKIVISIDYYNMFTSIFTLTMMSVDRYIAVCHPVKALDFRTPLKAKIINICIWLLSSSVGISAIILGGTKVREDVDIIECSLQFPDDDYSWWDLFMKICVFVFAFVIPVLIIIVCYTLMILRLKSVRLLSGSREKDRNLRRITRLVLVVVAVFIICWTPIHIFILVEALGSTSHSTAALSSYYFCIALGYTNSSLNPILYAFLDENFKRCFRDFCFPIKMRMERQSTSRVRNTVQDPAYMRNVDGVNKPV

[4] = system: rats; experiment: Tail pinch test for analgesia; format: in vivo, rat; conditions: intravenous
Procedure: (§1) Analgesia was assayed in rats using the tail pinch test. Compound 1 was administered intravenously. Nociceptive response values were obtained for a 1-2 hour period. An artery clamp was placed on the tail (one inch from the tip of the tail) for a short duration until an escape response occurred (i.e. tail-flick or vocalization). The escape response latency was recorded by means of a stopwatch. A cutoff time of 20 sec. was used to prevent unnecessary tissue damage. […] The elapsed time to elicit a pain response was recorded as the tail pinch latency in seconds.
(§2) Further, the compound acts predominately at peripheral delta opioid receptors.

[5] = system: rats; experiment: Observation of seizures in tail pinch test animals; format: in vivo, rat; conditions: intravenous, up to 50 mg/kg
Procedure: as §1, §2

[6] = system: hearts isolated from Sprague-Dawley rats; experiment: tissue or blood; parameters: species or system rat; conditions: for % IS/AAR: about 15 min prior to occlusion; for inhibition at 0.0001 µM / inhibition at 0.001 µM / inhibition at 0.01 µM: Rattus norvegicus, after 35 min regional ischemia and 120 min reperfusion; for inhibition at 0.0001 µM: 0.1 nM; for inhibition at 0.001 µM: 1.0 nM
[7] = system: rats; experiment: In vivo LAD coronary artery ligation (35 min) and reperfusion, infarct size, pretreatment 15 min prior; parameters: species or system rat; conditions: 1 mg/kg i.v.
[8] = system: rats; experiment: In vivo coronary artery occlusion (30 min) and reperfusion, pre-ischemic administration; parameters: species or system rat
[9] = system: rats; experiment: In vivo coronary artery occlusion and reperfusion, administration immediately prior to reperfusion; parameters: species or system rat; conditions: 0.3 mg/kg, administered at time of reperfusion
[10] = 0.03 mg/kg i.v. 5 min prior to occlusion
[11] = 0.3 mg/kg i.v. 5 min prior to occlusion

T1 sequence (P33535 whole entry): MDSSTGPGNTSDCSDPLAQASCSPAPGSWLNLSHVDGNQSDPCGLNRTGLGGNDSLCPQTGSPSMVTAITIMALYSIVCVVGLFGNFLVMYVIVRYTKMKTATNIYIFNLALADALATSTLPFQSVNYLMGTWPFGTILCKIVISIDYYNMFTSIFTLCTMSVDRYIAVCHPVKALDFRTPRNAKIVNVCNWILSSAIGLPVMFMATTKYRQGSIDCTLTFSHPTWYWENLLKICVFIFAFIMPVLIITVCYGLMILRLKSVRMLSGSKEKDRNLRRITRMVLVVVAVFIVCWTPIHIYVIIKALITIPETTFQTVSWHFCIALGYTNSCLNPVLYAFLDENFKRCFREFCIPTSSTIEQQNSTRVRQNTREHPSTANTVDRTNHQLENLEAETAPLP

## CCN(CC)C(=O)c1ccc([C@H](c2cccc(O)c2)N2C[C@@H](C)N(Cc3ccc(C(=O)O)cc3)C[C@@H]2C)cc1 [Compound 1]
[1]
  Ki: 1520 nM
[2]
  Ki: 1.89 nM
[3]
  Ki: 17400 nM
[4]; Rattus norvegicus, 20 sec cutoff
  ED50: > 50 mg/kg
[4]
  analgesic activity: no analgesic activity
[5]
  Seizures: NONE
[5]; listed as compound (1)
  Seizures: no seizures were observed
[6]; 1 nM acute pretreatment, one group, FIG. 1
  reduction of infarct size relative to control group: 71%
[6]; 1 nM, isolated rat heart
  % IS/AAR: 18 ± 5%
[6]; 2 nM, isolated rat heart
  % IS/AAR: 9 ± 2%
  protection against damage present in control group (maximal protection): ~90%
[6]; 10 nM, isolated rat heart
  % IS/AAR: 20 ± 6%
[6]; read-out: +dP/dt % inhibition
  inhibition at 0.0001 µM: 26%
  inhibition at 0.001 µM: 7%
[6]; read-out: CF % inhibition
  inhibition at 0.0001 µM: 43%
  inhibition at 0.001 µM: 13%
[6]; read-out: HRXDP % inhibition
  inhibition at 0.0001 µM: 32%
  inhibition at 0.001 µM: 17%
[6]; read-out: −dP/dt % inhibition
  inhibition at 0.0001 µM: 19%
  inhibition at 0.001 µM: 10%
[6]; 10 nM, read-out: +dP/dt % inhibition
  inhibition at 0.01 µM: 21%
[6]; 10 nM, read-out: CF % inhibition
  inhibition at 0.01 µM: 38%
[6]; 10 nM, read-out: HRXDP % inhibition
  inhibition at 0.01 µM: 32%
[6]; 10 nM, read-out: −dP/dt % inhibition
  inhibition at 0.01 µM: 18%
[6]; pretreated hearts, some parameters up to 90%
  heart tissue functioning, % of normal (on the average): at least 75%
[7]; measurement 156 hours after administration (approximately 7 days)
  Reduction of Infarct Size Relative to Non treated Control: 43%
[7]; measurement after acute administration
  Reduction of Infarct Size Relative to Non treated Control: 48%
[8]; 0.01 mg/kg i.v. 5 min prior to occlusion
  Study 1 (% IS/AAR): 56 ± 5%
[8]; [10]
  Study 1 (% IS/AAR): 44 ± 10%
  Study 2 (% IS/AAR): 40 ± 3%
[8]; 0.1 mg/kg i.v. 5 min prior to occlusion
  Study 2 (% IS/AAR): 39 ± 3%
[8]; [11]
  Study 1 (% IS/AAR): 35 ± 11%
  Study 2 (% IS/AAR): 38 ± 3%
[8]; 1.0 mg/kg i.v. 5 min prior to occlusion
  Study 1 (% IS/AAR): 40 ± 8%
[9]
  protection against control ischemic damage: 30-40%
